Measurements taken from article PMC10498667 (Chemical Science, 2023).
Where two headings read alike, the source gives them in different places.

Assays:
Format in all cases: biochemical
Aβ42 [1] = target: T1, Aβ42 (Homo sapiens, UniProt P05067); experiment: Aβ42 aggregation inhibition experiments (gel/western blot, TEM); details: flavonoid 50 μM, 24 h
T1 construct: purchased Peptide Institute, Inc. (Osaka, Japan)
Description: To verify whether a series of nine flavonoids can modulate the aggregation of Aβ with and without metal ions, the molecular weight (MW) distribution and morphology of the resultant Aβ species were determined by gel electrophoresis with western blotting (gel/western blot) using an anti-Aβ antibody (6E10) and transmission electron microscopy (TEM), respectively. Two types of experiments were carried out employing two major Aβ isoforms, i.e., Aβ42 and Aβ40:[25] (i) inhibition studies to identify the effect of 1–5, 1a, 1b, 4a, and 4b on the formation of Aβ aggregates; (ii) disaggregation studies to evaluate if the flavonoids with reactivities towards Aβ aggregation in inhibition studies can disassemble preformed Aβ aggregates or modulate their further aggregation, as illustrated in Fig. 4 and S5–S9. ^† Moreover, the solutions containing the flavonoids and Cu(II) were probed by electronic absorption (Abs) spectroscopy to monitor their metal binding. […] As expected, no Abs change of 1a and 4a composed of methoxy groups on the A ring was detected by addition of Cu(II). […]
Ab Aggregation Experiments. Ab was dissolved in ammonium hydroxide [1% w/w NH4OH (aq)] and the resulting solution was aliquoted, lyophilized overnight, and stored at –80 °C. A stock solution of Ab was then prepared by dissolving the lyophilized peptide with NH4OH (1% w/w, aq; 10 µL) and diluting with ddH2O. All Ab samples were prepared following previously reported procedures.21,22 The concentration of the peptide solution was determined by measuring its […]
solution (20 mM HEPES, pH 7.4, 150 mM NaCl) was used for preparing Ab samples. For the inhibition studies, flavonoids (final concentration, 50 µM; 1% v/v DMSO) were added to the samples of Ab (25 µM) in the absence and presence of CuCl2 or ZnCl2 (25 µM) followed by incubation for 24 h at 37 °C with constant agitation. For the disaggregation studies, Ab (25 µM) was incubated with and without CuCl2 or ZnCl2 (25 µM) for 24 h at 37 °C with constant agitation to generate preformed Ab aggregates. The resultant Ab aggregates were then treated with flavonoids (50 µM) and incubated for additional 24 h with constant agitation. For the additional disaggregation experiments, preformed Ab42 aggregates (25 µM) or Ab42 seeds (10% v/v) with or without metal ions (25 µM for CuCl2 and ZnCl2) were incubated with flavonoids (50 µM) for 24 h with constant agitation. The resultant Ab aggregates were then treated with freshly prepared Ab42 […]
(25 µM) and incubated for additional 24 h with constant agitation.
Gel/Western Blot. The resultant Ab species from the aggregation experiments were analyzed by gel/Western blot using an anti-Ab antibody (6E10, Covance, Princeton, NJ, USA).21,22 Each sample (10 µL) was separated on a 10–20% tricine gel (Invitrogen). Following separation, the proteins were transferred onto nitrocellulose membranes and blocked with bovine serum albumin (BSA, 3% w/v; Sigma-Aldrich) in Tris-buffered saline (TBS) containing 0.1% v/v Tween-20 (Sigma-Aldrich) (TBS-T) for 4 h at room temperature or overnight at 4 °C. The membranes were incubated with 6E10 (1:2,000) in the solution of BSA (2% w/v in TBS-T) for 4 h at room temperature. […] A homemade ECL kit21–23 was used to visualize gel/Western blots on a ChemiDoc MP Imaging System (Bio-Rad).
TEM. Samples for TEM were prepared following previously reported methods.22,24 Glow-discharged grids (Formvar/Carbon 300-mesh; Electron Microscopy Sciences, Hatfield, PA, USA) were treated with Ab samples (25 µM; 7.5 µL) for 2 min at room temperature. Excess sample was removed using filter paper followed by washing with ddH2O (3x). Each grid incubated with uranyl […]

[2] = target: T2, Electric eel acetylcholinesterase (eeAChE) (Electrophorus electricus, UniProt O42275); experiment: Fluorometric AChE activity assay
T2 construct: purchased Invitrogen (AChE assay kit)
T2 sequence (O42275 24-633): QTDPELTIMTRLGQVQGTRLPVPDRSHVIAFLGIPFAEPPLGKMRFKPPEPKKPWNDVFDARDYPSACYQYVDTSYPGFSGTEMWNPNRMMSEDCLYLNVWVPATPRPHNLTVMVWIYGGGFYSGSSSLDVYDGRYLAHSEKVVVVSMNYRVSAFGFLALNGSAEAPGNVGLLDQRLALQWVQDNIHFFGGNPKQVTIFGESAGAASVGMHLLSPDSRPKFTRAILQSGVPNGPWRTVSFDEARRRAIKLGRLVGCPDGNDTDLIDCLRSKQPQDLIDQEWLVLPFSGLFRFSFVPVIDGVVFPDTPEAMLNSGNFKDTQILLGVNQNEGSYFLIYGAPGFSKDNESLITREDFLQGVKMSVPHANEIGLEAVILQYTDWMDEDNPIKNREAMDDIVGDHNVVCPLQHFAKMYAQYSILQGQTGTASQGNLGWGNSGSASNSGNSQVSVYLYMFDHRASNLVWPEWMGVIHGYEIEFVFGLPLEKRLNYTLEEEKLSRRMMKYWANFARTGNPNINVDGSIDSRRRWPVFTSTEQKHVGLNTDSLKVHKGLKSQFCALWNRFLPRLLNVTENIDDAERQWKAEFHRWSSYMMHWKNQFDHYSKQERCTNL
Excerpt: Inhibiting the activity of AChE can maintain a proper level of ACh under dysregulated cholinergic conditions.[10,11] Thus, the inhibitory capability of flavonoids against AChE was investigated by a previously reported fluorescent AChE assay with slight modifications.[60] […] The inclusion of three hydroxyl groups on the A ring is critical for controlling the catalytic activity of AChE, as previously reported,[49] whereas the incorporation of a chloro substituent, with three hydroxyl groups, and methoxy moieties instead of hydroxyl groups on the A ring can decrease such inhibitory activity. Flavonoids 2, 3, and 1b over 1 illustrates the importance of the position of hydroxyl groups on the A ring and the isoflavone variation in directing the flavonoids' ability to inhibit the activity of AChE. […]
All experiments were performed in triplicate.
AChE Activity Assay. The AChE inhibitory activity of flavonoids was measured by a fluorometric AChE assay kit (Invitrogen) following the manufacturer ’s protocol with slight modifications.
Electric eel acetylcholinesterase (eeAChE) was dissolved and diluted with a working solution. The eeAChE solution (50 µL) was added into a 96-well plate. Various concentrations of flavonoids were then introduced into the 96-well plate. The final concentrations of flavonoids were as follow: […]
µM). After shaking, the mixture of eeAChE and flavonoids was pre-incubated for 15 min. A reaction mixture containing acetylcholine, an AChE probe, and AbRedTM was added into the 96-well plate to initiate the reaction. The AChE activity was calculated based on the fluorescence intensity (lex/lem = 571/585 nm) of the wells that was detected after 15 min incubation. Data were normalized to the control (no inhibitor). All experiments were performed in triplicate. […]
For the disaggregation studies, Ab (25 µM) was incubated with and without CuCl2 or ZnCl2 (25 µM) for 24 h at 37 °C with constant agitation to generate preformed Ab aggregates. The resultant Ab aggregates were then treated with flavonoids (50 µM) and incubated for additional 24 h with constant agitation. For the additional disaggregation experiments, preformed Ab42 aggregates (25 µM) or Ab42 seeds (10% v/v) with or without metal ions (25 µM for CuCl2 and ZnCl2) were incubated with flavonoids (50 µM) for 24 h with constant agitation. The resultant Ab aggregates were then treated with freshly prepared Ab42

Aβ42 [3] = target: T1, Aβ42; experiment: Dot blot assay with anti-oligomer (A11) and anti-fibril (OC) antibodies; details: flavonoid 200 μM, up to 24 h
Excerpt: Moreover, to investigate the effects of the flavonoids on the oligomerization and fibrilization of metal-free Aβ42 and metal–Aβ42, we performed the dot blot assay employing anti-oligomer (A11) and anti-fibril (OC) antibodies,[23] as illustrated in Fig. S12. ^† It should be noted that the thioflavin-T (ThT) assay utilized for monitoring the formation of β-sheet-rich aggregates cannot be carried out under our experimental conditions since the absorption windows of 4, 5, and 4b interfere with the excitation and emission wavelengths of ThT (Fig. S13 ^†). […]
Dot Blot Assay. The samples containing Ab42 (100 µM) with or without CuCl2 or ZnCl2 (100 µM) in the absence and presence of flavonoids (200 µM; 1% v/v DMSO) were prepared in 20 mM HEPES, pH 7.4, 150 mM NaCl and incubated for various time points (0, 1, 2, 3, 4, 6, 12, and 24 h). […] The membrane was incubated with a primary antibody [i.e., 6E1026 for Ab species (1:2,000), A1126 for Ab oligomers (1:1,000; Invitrogen, Carlsbad, CA, USA), or OC26 for Ab fibrils (1:2,000; Merch Millipore, Billerica, MA, USA)] in the solution of BSA (2% w/v in TBS-T) for 4 h at room temperature. […] A homemade ECL kit21–23 was used to visualize the results on a ChemiDoc MP Imaging System.
The intensity observed from A11- or OC-detectable Ab species was quantified, relative to that detected from 6E10, by the ImageJ software. […]

[4] = Zn(II)–Aβ42, Aβ 25 μM, Zn(II) 25 μM
[5] = Cu(II)–Aβ42 or Zn(II)–Aβ42 100 μM

T1 sequence (P05067 672-713 limits assumed): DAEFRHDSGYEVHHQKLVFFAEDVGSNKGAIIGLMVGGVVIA

## COc1cc(OC)c2c(=O)cc(-c3ccccc3)oc2c1 [1a, 5,7-dimethoxyflavone]
Aβ42 [1]; Cu(II)–Aβ42
  morphology of resultant aggregates (TEM): did not indicate any noticeable morphological changes
Aβ42 [1]; [4]
  MW distribution of resultant species (gel/western blot): a significant change in the MW distribution was not indicated
Aβ42 [1]; Zn(II)–Aβ42
  morphology of resultant aggregates (TEM): did not indicate any noticeable morphological changes
Aβ42 [1]; metal-free Aβ42 25 μM, 37 °C
  MW distribution of resultant species (gel/western blot): could not change the size distribution
Aβ42 [1]; metal-free Aβ42
  morphology of resultant aggregates (TEM): little or no morphological alteration
[2]; fluorometric assay, eeAChE
  inhibitory activity against AChE (IC50 could not be obtained): negligible inhibitory activity
Aβ42 [3]; [5]
  A11- and OC-detectable signals (oligomers and fibrils): not significantly varied
Aβ42 [3]; metal-free Aβ42 100 μM
  A11- and OC-detectable signals (oligomers and fibrils): not significantly varied

## O=c1c(-c2ccccc2)coc2cc(O)cc(O)c12 [1b, 5,7-dihydroxyisoflavone]
Aβ42 [1]; Cu(II)–Aβ42
  morphology of resultant aggregates (TEM): did not indicate any noticeable morphological changes
Aβ42 [1]; [4]
  MW distribution of resultant species (gel/western blot): a significant change in the MW distribution was not indicated
Aβ42 [1]; Zn(II)–Aβ42
  morphology of resultant aggregates (TEM): did not indicate any noticeable morphological changes
Aβ42 [1]; metal-free Aβ42 25 μM, 37 °C
  MW distribution of resultant species (gel/western blot): could not change the size distribution
Aβ42 [1]; metal-free Aβ42
  morphology of resultant aggregates (TEM): little or no morphological alteration
[2]
  IC50: 11.8 µM
Aβ42 [3]; [5]
  A11- and OC-detectable signals (oligomers and fibrils): not significantly varied
Aβ42 [3]; metal-free Aβ42 100 μM
  A11- and OC-detectable signals (oligomers and fibrils): not significantly varied

## COc1cc2oc(-c3ccccc3)cc(=O)c2c(OC)c1OC [4a, 5,6,7-trimethoxyflavone]
Aβ42 [1]; Cu(II)–Aβ42
  morphology of resultant aggregates (TEM): did not indicate any noticeable morphological changes
Aβ42 [1]; [4]
  MW distribution of resultant species (gel/western blot): a significant change in the MW distribution was not indicated
Aβ42 [1]; Zn(II)–Aβ42
  morphology of resultant aggregates (TEM): did not indicate any noticeable morphological changes
Aβ42 [1]; metal-free Aβ42 25 μM, 37 °C
  MW distribution of resultant species (gel/western blot): could not change the size distribution
Aβ42 [1]; metal-free Aβ42
  morphology of resultant aggregates (TEM): little or no morphological alteration
[2]; fluorometric assay, eeAChE, read-out: IC50 for AChE inhibition
  IC50: 52.5 µM
Aβ42 [3]; [5]
  A11- and OC-detectable signals (oligomers and fibrils): not significantly varied
Aβ42 [3]; metal-free Aβ42 100 μM
  A11- and OC-detectable signals (oligomers and fibrils): not significantly varied
